# Article PMC10746708, “A small molecule iCDM-34 identified by in silico screening suppresses HBV DNA through activation of aryl hydrocarbon receptor” (Cell Death Discovery, 2023)
# How the values were obtained:
# HBV genotype C [1] = experiment: Anti-HBV activity in HBV-infected PXB cells (HBV DNA by qPCR); assay type: cell-based
# Experimental: PXB cells (primary cultured human hepatocytes) were purchased from PhoenixBio (Higashi-Hiroshima, Japan) and cultured on collagen type I-coated 96- or 24-well plates in hepatocyte clonal growth medium at 37 °C and 5 % CO2 as previously described. RealTime-Glo MT Cell Viability Assay (Promega) and XTT assay were performed according to a previously established protocol.
# (§1) PXB cells were plated on 96-well plate and infected with three genome equivalents per cell of HBV C_AT [33], and the medium was changed every 3 or 4 days. […] After treatment with these compounds, cellular DNA, medium DNA, and total RNA were automatically purified as per our previously established protocol. RNA purification of total RNA from cultured cells in the 24-well plate was performed using the RNeasy Mini Kit (Qiagen, Germantown, MD, USA) according to the manufacturer’s instructions.
# HBV DNA copy numbers were determined using TaqMan Gene Expression Master Mix (Thermo Fisher Scientific) or Probe qPCR Mix (Takara Bio), specific primers, and probes in a qPCR system (Light Cycler 96 System, Roche, Basel, Switzerland or CFX96 Touch Real-Time PCR Detection System, Bio-Rad Laboratories, Hercules, CA, USA). The specific primers and probe used for detection of HBV DNA were as follows: forward primer: 5′-[…]-3′, reverse primer: 5′-[…]-3′, and probe: 5′-[FAM] […][TAM]-3′.
# HCV replicon cells = experiment: HCV replicon luciferase assay; assay type: cell-based; settings: 0.05–30 µM, 3 days
# Experimental: HCV replicon cells were plated on clear and white 96-well plates (TPP, 92096 and Greiner Bio-one, 655083) in DMEM, high glucose, GlutaMAX Supplement (Thermo Fisher Scientific, Waltham, MA, USA) containing 10 % fetal bovine serum, penicillin, and streptomycin. After 1 day, the cells were treated with 0.05–30 µM of iCDM-17 and iCDM-34 for 3 days. The quantity of HCV replicons was measured by a luciferase assay using Steady-Glo Luciferase Assay System (Promega, Madison, WI, USA). The cell viability was measured by XTT assay using Cell proliferation kit II (Roche, Mannheim, Germany) according to the established protocol.
# [2] = Liver microsomal stability, human; assay type: in vitro ADME; settings: human liver microsomes
# Experimental: (§2) Liver microsome stability studies (human, mouse, and rat) were performed at Sumika Chemical Analysis Service (Osaka, Japan) by following an established procedure. A mixture of 1 μM of substrate, 0.5 mg protein/mL of microsomes, and […] β-NADPH was incubated for 30 or 60 min and % remaining substrate was quantitatively measured by LC-MS/MS.
# [3] = Liver microsomal stability, rat; assay type: in vitro ADME; settings: rat liver microsomes
# Experimental: as §2
# [4] = Liver microsomal stability, mouse; assay type: in vitro ADME; settings: mouse liver microsomes
# Experimental: as §2
# HBV genotype C [5] = experiment: HBsAg and HBeAg in culture medium by ELISA; assay type: cell-based; settings: 30 µM, 7 days
# Experimental: as §1
# HBsAg and HBeAg levels in the cell culture medium were measured using Enzygnost HBsAg 6.0 and Enzygnost HBe monoclonal (Siemens, Munich, Germany), respectively, according to the manufacturer’s instructions.
# [6] = target: interaction between HBx and DNA binding protein 1 (UniProt P03165+Q16531); experiment: HBx - DNA binding protein 1 interaction; settings: data not shown
# AhR signaling pathway = experiment: CYP mRNA qPCR in 3D cultured FLC-4 cells; assay type: cell-based, human; settings: 1, 10 μM, 1 day
# Experimental: The human hepatocellular carcinoma cell line FLC-4 was cultured on micro-space cell culture plates (Elplasia SQ-200, -100, -24, Kuraray, Tokyo, Japan) maintained at 37 °C and 5 % CO2 according to the manufacturer’s protocol. FLC-4 cells suspended in DMEM/Ham’s F12 medium supplemented with 10% heat-inactivated fetal bovine serum, 100 U/mL penicillin G, and 100 μg/mL streptomycin were seeded at a density of 8.0 × 10^5 cells/well and cultured for 3 days. The medium was replenished every 72 h, completely removed, and replaced with serum-free medium containing 1–10 µM iCDM-34 or vehicle (DMSO). Total RNA was isolated from cells and reverse transcribed complementary DNA was subjected to quantitative qPCR. mRNA expression was determined using TaqMan Gene Expression Assays (Hs00167927_m1 for CYP1A2, Hs00604506_m1 for CYP3A4, for Hs00426397_m1 for CYP2C9; Thermo Fisher Scientific, Waltham, MA, USA). Expression levels were determined using the 2^–ΔΔCt method and were normalized to endogenous GAPDH mRNA expression levels.
# CDK1/2 = CDK1/2 mRNA qPCR in HepG2-NTCP-C4 cells; assay type: cell-based, human; settings: 30 μM
# Experimental: HepG2-NTCP-C4 cells were plated on a 96-well plate in DMEM/F12 and GlutaMAX Supplement (Thermo Fisher Scientific) containing 10% fetal bovine serum, 10 mM HEPES, 5 μg/ml insulin, […] hydrocortisone, 200 U/ml penicillin, and 200 μg/ml streptomycin. After 1 day, the cells were treated with 30 μM iCDM-17 and iCDM-34 for 3, 8, 24 h. Total RNA was purified form the cells using Agencourt RNA advance (Beckman Courter). cDNA was synthesized using PrimeScript RT master mix (Takara Bio). CDK1, CDK2, β-actin mRNA amount was quantified by qPCR.
# mRNA expression levels were measured by qPCR using specific primers or sets of specific primers and probe. RNA was reverse transcribed using PrimeScript RT Master Mix (Takara Bio, Shiga, Japan) to synthesize complementary DNA (cDNA). OAS1,glyceraldehyde 3-phosphate dehydrogenase (GAPDH), β-actin mRNA expression levels were measured using specific primers and TB Green Premix Ex Taq II (Takara Bio). AhR (Hs00169233_m), CDK1 (Hs00938777_m), CDK2 (Hs01548894_m) mRNA expression levels were measured using specific probe and primer sets (Thermo Fisher Scientific, Waltham, MA, USA) and Probe qPCR mix (Takara Bio) in a CFX96 Touch Real-Time PCR Detection System (Bio-Rad Laboratories, Hercules, CA, USA). […] Expression levels were determined using the 2^–ΔΔCt method and were normalized to endogenous β-actin mRNA expression levels.
# [7] = 1 μM substrate, 0.5 mg protein/mL, 30 min
# [8] = 1 μM substrate, 0.5 mg protein/mL, 60 min
# Chain of interaction between HBx and DNA binding protein 1 (Q16531 whole entry): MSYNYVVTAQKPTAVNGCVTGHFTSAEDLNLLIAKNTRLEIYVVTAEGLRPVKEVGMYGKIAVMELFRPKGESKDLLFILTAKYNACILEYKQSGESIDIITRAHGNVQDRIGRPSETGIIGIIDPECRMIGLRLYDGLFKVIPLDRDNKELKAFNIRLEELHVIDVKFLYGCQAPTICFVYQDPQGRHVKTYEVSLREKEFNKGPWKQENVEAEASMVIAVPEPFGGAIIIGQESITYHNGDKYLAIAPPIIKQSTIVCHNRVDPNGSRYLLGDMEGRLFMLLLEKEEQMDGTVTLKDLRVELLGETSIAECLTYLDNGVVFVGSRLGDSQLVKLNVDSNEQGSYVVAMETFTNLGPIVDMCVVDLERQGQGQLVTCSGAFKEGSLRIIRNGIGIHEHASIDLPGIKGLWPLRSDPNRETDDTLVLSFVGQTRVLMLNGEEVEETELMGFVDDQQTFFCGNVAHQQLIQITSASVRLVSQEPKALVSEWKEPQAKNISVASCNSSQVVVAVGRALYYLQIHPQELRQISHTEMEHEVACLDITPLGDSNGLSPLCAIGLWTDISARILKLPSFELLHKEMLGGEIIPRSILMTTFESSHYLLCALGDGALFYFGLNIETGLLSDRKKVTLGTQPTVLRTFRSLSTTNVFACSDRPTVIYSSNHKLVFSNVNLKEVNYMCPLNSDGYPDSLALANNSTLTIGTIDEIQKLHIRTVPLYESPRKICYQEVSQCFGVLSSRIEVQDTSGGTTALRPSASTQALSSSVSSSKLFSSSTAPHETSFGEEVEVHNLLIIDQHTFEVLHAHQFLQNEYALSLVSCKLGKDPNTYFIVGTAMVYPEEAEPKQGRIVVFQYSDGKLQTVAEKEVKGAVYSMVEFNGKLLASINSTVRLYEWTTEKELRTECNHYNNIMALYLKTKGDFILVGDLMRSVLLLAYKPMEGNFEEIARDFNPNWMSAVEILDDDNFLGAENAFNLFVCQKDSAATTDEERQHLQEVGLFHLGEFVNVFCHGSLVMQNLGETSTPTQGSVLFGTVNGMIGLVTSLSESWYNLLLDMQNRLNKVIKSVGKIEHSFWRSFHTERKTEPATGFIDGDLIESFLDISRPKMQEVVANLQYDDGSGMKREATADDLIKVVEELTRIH
# Chain of interaction between HBx and DNA binding protein 1 (P03165 whole entry): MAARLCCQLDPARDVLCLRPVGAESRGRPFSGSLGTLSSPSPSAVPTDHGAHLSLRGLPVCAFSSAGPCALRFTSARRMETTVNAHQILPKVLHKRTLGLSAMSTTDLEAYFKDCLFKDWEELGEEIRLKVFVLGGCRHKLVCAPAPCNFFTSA
smiles,measurement,setting,value
O=C(Nc1ccc(Br)cc1)c1ccn(Cn2cc([N+](=O)[O-])cn2)n1 [iCDM-34],medium HBV DNA,"HBV genotype C [1]; 30 µM, 7 days",inhibited
same,effect of combination with ETV on cellular HBV DNA,"HBV genotype C [1]; 3 and 30 µM with 10 nM ETV, 7 days",additive effects
same,cellular HBV DNA,"HBV genotype C [1]; 3 and 30 µM, 7 days, dose-dependent",decreased
same,IC50,"HBV genotype C [1]; Hepatitis B virus, 168 h, HBV genotype C-infected PXB cells, 0.03–100 µM for 7 days, qPCR, read-out: half maximal inhibitory concentration, cellular HBV DNA",19.7 µM
same,HCV replication (replicon luciferase),HCV replicon cells,suppressed
same,half-life at 1 μM,[2],8.43 h
same,"remaining at 0.5 h, 1 μM",[2]; [7],96.2 ± 3.2%
same,"remaining at 1 h, 1 μM",[2]; [8],94.1 ± 3.3%
same,half-life at 1 μM,[3],3.32 h
same,"remaining at 0.5 h, 1 μM",[3]; [7],90.2 ± 0.5%
same,"remaining at 1 h, 1 μM",[3]; [8],85.2 ± 0.3%
same,half-life at 1 μM,[4],0.552 h
same,"remaining at 0.5 h, 1 μM",[4]; [7],41.2 ± 0.4%
same,"remaining at 1 h, 1 μM",[4]; [8],21 ± 0.8%
same,HBeAg in medium,HBV genotype C [5],inhibited
same,HBsAg in medium,HBV genotype C [5],inhibited
same,inhibition of interaction between HBx and DNA binding protein 1,[6],did not inhibit
same,CYP1A2 mRNA expression,AhR signaling pathway,increased expression
same,CDK2 mRNA expression levels,CDK1/2; after 3 and 8 h,significantly suppressed
same,CDK1 mRNA levels,CDK1/2; after 8 and 24 h,significant suppression
